Results: patent US10179802B2 (priority 2014, dated 2019)

Test system: HVA calcium channel
Assay type: cell-based, rat

Compound: COC(=O)C1=C(C)NC(C)=C(C(=O)OC)C1c1ccccc1[N+](=O)[O-] [Nifedipine]
- current after loading: −734.31 pA
- current before loading: −1471.35 pA
- inhibition rate (10 µM): 50.09%
